Reference: patent US20150328245A1, “Agents for Eliminating Tumour-Initiating Cells” (priority 2012, published 2015)

Key:
Assay type in all cases: cell-based
[1] = tested on: breast cancer cells MDA MB 231; test: In vitro 3D primary sphere forming stem cell assay
Description: (§1) This assay measures the ability of cancer stem cells to form spheres in a serum free media where the spheres are in a suspended form. Through this assay we evaluated the potency of the compounds of the invention to kill cancer stem cells in comparison with the known chemotherapeutic agent Cisplatin.
(§2) An exemplary procedure for the assay follows. Cells were grown in three dimensions on a plastic substrate, harvested in suspension in serum-free media, then the cells in the sample were trypsinized and a single cell suspension was formed by passing through a cell strainer. The cells were diluted according to the predetermined plating efficiency for the cell line being studied by suspending the cells in stem cell culture medium. 100 uL of this suspension was added into each well of a 96 well suspension plate, and the plate was incubated at 37 degrees Celsius in 5% CO2 atmosphere for 24 hours, then 2 uL of appropriate concentrations of the compounds of the invention and cisplatin were added into each respective well along with 100 uL of stem cell culture medium, and the plates were incubated at 37 degrees Celsius under 5% CO2 atmosphere for 72 hours. 2.5 uL of the compounds of the invention and cisplatin were added to each respective well along with 50 uL of stem cell culture medium and then the plates were incubated at 37 degrees Celsius under 5% CO2 atmosphere for 72 hours. 3 uL of appropriate concentrations of the compounds of the invention and cisplatin were added to each respective well along with 50 uL of stem cell culture medium and then the plates were incubated at 37 degrees Celsius under 5% CO2 atmosphere for 72 hours, then the spheres formed were observed under a microscope then counted and scored by size.
(§3) Results of the in vitro 3D sphere forming stem cell assay are set forth in a tabular manner. The number in each box is the total number of spheres formed in the presence of either cisplatin or compound I-2 or compound I-3 at each drug concentration. GC refers to a growth control performed in the absence of drug or solvent (DMSO). GCD refers to a growth control performed in the absence of drug, but in the presence of DMSO.

[2] = tested on: prostate cancer cells LNCaP; test: In vitro 3D primary sphere forming stem cell assay
Description: as §1, §2, §3

[3] = tested on: prostate cancer cells DU145; test: In vitro 3D primary sphere forming stem cell assay
Description: as §1, §2, §3

[4] = tested on: prostate cancer cells PC3; test: In vitro 3D primary sphere forming stem cell assay
Description: as §1, §2, §3

[5] = tested on: breast cancer cells T47D; test: In vitro 3D primary sphere forming stem cell assay
Description: as §1, §2, §3

[6] = tested on: MCF-7; test: In vitro colorimetric cell death assay (MTT); settings: Homo sapiens, MCF7; MCF-7, MTT, 48 hours
Description: (§4) It's an in vitro colorimetric assay for assessing cell viability where the cells are grown in Two-dimensional surface.
(§5) An exemplary procedure for the assay follows. Cancer cells and normal cells were plated in a 96 well plate as per predetermined plating efficiency. The plate was incubated for 24 hours in a 5% CO2 atmosphere at 37 degrees Celsius, a range of concentrations of the compounds I-1, I-2 and I-3 as well as cisplatin (known chemotherapeutic agents) were added to the separate wells, the plate was incubated further for 48 hours in a 5% CO2 atmosphere, the plate was centrifuged twice at 3000 rpm for 3 minutes, the supernatant fluid was discarded, 100 uL of 0.5 mg/mL MTT solution was added and the plate was incubated for 4 hours in a 5% CO2 atmosphere at 37 degrees Celsius. The plate was then centrifuged twice at 3000 rpm for 3 minutes, supernatant, was aspirated very carefully, 200 uL DMSO was added to each well to solubilize MTT crystals and mixed well by shaking the plate, the plate was incubated for 10 minutes in a 5% CO2 atmosphere at 37 degrees Celsius, the plate placed on the shaker of an ELISA plate reader and the absorbance at 570 nm was measured, then the percentage of viable cells remaining was calculated by first subtracting the background absorbance then comparing to the absorbance of a non-drug-treated cell sample, and the results were plotted on a graph to determine the IC50 for the compounds and cisplatin.

[7] = tested on: L 929; test: In vitro colorimetric cell death assay (MTT); settings: Mus musculus, L929; L 929, MTT, 48 hours; read-out: IC 50
Description: as §4, §5

[8] = tested on: MDAMB231; test: In vitro colorimetric cell death assay (MTT); settings: Homo sapiens, MDA-MB-231, 48 hours
Description: as §4, §5

[9] = tested on: MCF10A (normal breast cell line); test: In vitro colorimetric cell death assay (MTT); settings: 48 hours
Description: as §4, §5

[10] = tested on: DU145; test: In vitro colorimetric cell death assay (MTT); settings: Homo sapiens, DU-145; DU145, MTT, 48 hours; read-out: IC 50
Description: as §4, §5

COc1cc2c(OC3OCC(OC)C(OC)C3O)c3c(c(-c4ccc5c(c4)OCO5)c2cc1OC)C(=O)OC3 (centres unmarked) [I-2] was tested, and the “numbers of primary spheres formed, compared with cisplatin” value (shortened to “numbers … compared with cisplatin”) ([1]; MDA MB 231) was “significantly less”, the “# of 3D Primary Spheres Formed of Cells MDA MB231 (±SD)” value ([1]; final conc. 0.125 μM) was 60(±9) and the “# of 3D Primary Spheres Formed of Cells MDA MB231 (±SD)” value ([1]; final conc. 1.25 μM) was 32(±5). The “# of 3D Primary Spheres Formed of Cells MDA MB231 (±SD)” value ([1]; final conc. 12.5 μM) was 14(±2), the “# of 3D Primary Spheres Formed of Cells MDA MB231 (±SD)” value ([1]; final conc. 125 μM) was 0(±0) and the “# of 3D Primary Spheres Formed of Cells MDA MB231 (±SD)” value ([1]; final conc. 1250 μM) was 0(±0). For the same molecule, the “numbers … compared with cisplatin” value ([2]; LNCaP) was “significantly less”, the “# of 3D Primary Spheres Formed of Cells LNCaP (±SD)” value ([2]; final conc. 0.125 μM) was 98(±17) and the “# of 3D Primary Spheres Formed of Cells LNCaP (±SD)” value ([2]; final conc. 1.25 μM) was 49(±6). For the same molecule, the “# of 3D Primary Spheres Formed of Cells LNCaP (±SD)” value ([2]; final conc. 12.5 μM) was 6(±2), the “# of 3D Primary Spheres Formed of Cells LNCaP (±SD)” value ([2]; final conc. 125 μM) was 0(±0) and the “# of 3D Primary Spheres Formed of Cells LNCaP (±SD)” value ([2]; final conc. 1250 μM) was 0(±0). For the same molecule, the “numbers … compared with cisplatin” value ([3]; DU145) was “significantly less”, the “# of 3D Primary Spheres Formed of Cells DU145 (±SD)” value ([3]; final conc. 0.125 μM) was 53(±5) and the “# of 3D Primary Spheres Formed of Cells DU145 (±SD)” value ([3]; final conc. 1.25 μM) was 41(±4). The “# of 3D Primary Spheres Formed of Cells DU145 (±SD)” value ([3]; final conc. 12.5 μM) was 18(±7), the “# of 3D Primary Spheres Formed of Cells DU145 (±SD)” value ([3]; final conc. 125 μM) was 7(±1) and the “# of 3D Primary Spheres Formed of Cells DU145 (±SD)” value ([3]; final conc. 1250 μM) was 0(±0). For the same molecule, the “numbers … compared with cisplatin” value ([4]; PC3) was “significantly less”, the “# of 3D Primary Spheres Formed of Cells PC3 (±SD)” value ([4]; final conc. 0.125 μM) was 81(±9) and the “# of 3D Primary Spheres Formed of Cells PC3 (±SD)” value ([4]; final conc. 1.25 μM) was 69(±3). The “# of 3D Primary Spheres Formed of Cells PC3 (±SD)” value ([4]; final conc. 12.5 μM) was 63(±8), the “# of 3D Primary Spheres Formed of Cells PC3 (±SD)” value ([4]; final conc. 125 μM) was 31(±6) and the “# of 3D Primary Spheres Formed of Cells PC3 (±SD)” value ([4]; final conc. 1250 μM) was 0(±0). For the same molecule, the “numbers … compared with cisplatin” value ([5]; T47D) was “significantly less”, the “# of 3D Primary Spheres Formed of Cells T47D (±SD)” value ([5]; final conc. 0.125 μM) was 84(±8) and the “# of 3D Primary Spheres Formed of Cells T47D (±SD)” value ([5]; final conc. 1.25 μM) was 34(±5). The “# of 3D Primary Spheres Formed of Cells T47D (±SD)” value ([5]; final conc. 12.5 μM) was 28(±7), the “# of 3D Primary Spheres Formed of Cells T47D (±SD)” value ([5]; final conc. 125 μM) was 14(±4) and the “# of 3D Primary Spheres Formed of Cells T47D (±SD)” value ([5]; final conc. 1250 μM) was 0(±0). For the same molecule, the IC50 [6] was 954 nM, the IC50 [7] was 1380 nM and the IC50 [8] was 330 nM. For the same molecule, the “IC50” value [9] was “No Activity” and the IC50 [10] was 2450 nM.
